pIC50: −log10 of the molar value.
Assays:
Trypanosoma cruzi [1] = test: Effect on proliferation of Trypanosoma cruzi Amastigotes in vero cells at a conc of 150 uM was determined; assay type: functional
Leishmania donovani [2] = test: Inhibition of L. donovani (Amastigotes) strain MHOM/ET/67/L82 maintained in female golden hamsters; assay type: functional, organism-based
Plasmodium falciparum = test: Inhibition of Plasmodium falciparum 3D7 in erythrocytes; assay type: functional, organism-based
Trypanosoma brucei [3] = test: Inhibition of Trypanosoma rhodesiense (strain STIB900) was determined using blood stream from trypomastigotes; assay type: functional, organism-based
Vero [4] = test: Percent infected vero cells was determined; assay type: functional
Toxoplasma gondii = test: Inhibition of Toxoplasma gondii tachyzoites in human foreskin fibroblast monolayer(DMEM with 10%fetal calf serum); assay type: functional, organism-based
Trypanosoma cruzi [5] = test: Inhibition of Trypanosoma cruzi Amastigotes was determined in γ-irradiated L6E9 myoblasts culture and fetal calf serum
Leishmania donovani [6] = test: Inhibition of L. donovani (Amastigotes) strain MHOM/ET/67/L82 maintained in pathogen free spleen from female golden hamsters; toxic; assay type: functional, organism-based
Vero [7] = test: Percent infected Vero cells was determined; assay type: functional
Leishmania donovani [8] = test: Inhibition of L. donovani (Amastigotes) strain MHOM/ET/67/L82 maintained in pathogen free spleen from female golden hamsters; assay type: functional, organism-based
Trypanosoma cruzi [9] = test: Inhibition of Trypanosoma cruzi Amastigotes was determined in γ-irradiated L6E9 myoblasts culture and fetal calf serum; remark: listed apart in the source
Trypanosoma cruzi [10] = test: microbe, parasite or virus in culture
Description: Compound was evaluated for anti-parasitic activity against Trypanosoma cruzi

Trypanosoma brucei [11] = test: Compound was evaluated for anti-parasitic activity against Trypanosoma brucei; assay type: functional, organism-based
Trypanosoma cruzi [12] = test: Effect on inhibition on proliferation of Trypanosoma cruzi Amastigotes in vero cells at a conc of 150 uM; assay type: functional

Structure (SMILES) | pIC50 (Leishmania donovani [2]) | pIC50 (Plasmodium falciparum) | pIC50 (Trypanosoma brucei [3]) | pIC50 (Trypanosoma cruzi [5]) | pIC50 (Toxoplasma gondii; read-out: IC50) | also measured
NCCCCC(O)(P(=O)(O)O)P(=O)(O)O | 3.89 | < 3.70 | < 3.70 | < 3.70 | < 3.70 | 
CCCCC(O)(P(=O)(O)O)P(=O)(O)O | < 3.70 | 4.25 | 4.00 | < 3.70 |  | 
CCCCCC(O)(P(=O)(O)O)P(=O)(O)O | < 3.70 | 5.29 | 4.20 | < 3.70 |  | 
CCOP(=O)(OCC)C(Nc1ncccc1C)P(=O)(OCC)OCC | 4.09 | < 3.70 | 4.55 | < 3.70 |  | inhibition at 150 µM (Trypanosoma cruzi [1]): 69%; Infected (Vero [7]): 9%
CCCC(O)(P(=O)(O)O)P(=O)(O)O | < 3.70 | 3.89 | 4.04 | < 3.70 |  | pIC50 (Toxoplasma gondii): 5.04
Cc1cccnc1NC(P(=O)(O)O)P(=O)(O)O |  | < 3.70 | 6.15 | 3.83 |  | IC50 (Leishmania donovani [6]): Toxic
CC(N)CC(O)(P(=O)(O)O)P(=O)(O)O (stereo unspecified) |  | < 3.70 | 5.11 | < 3.70 |  | pIC50 (Leishmania donovani [8]): < 3.70
NCCCC(O)(P(=O)(O)O)P(=O)(O)O [ALENDRONIC ACID] | 4.08 | < 3.70 | < 3.70 | 4.60 |  | 
O=C(Cn1ccnc1[N+](=O)[O-])NCc1ccccc1 [BENZNIDAZOLE] |  |  |  |  |  | pIC50 (Trypanosoma cruzi [10]): 5.46
NCCCCCC(O)(P(=O)(O)O)P(=O)(O)O [NERIDRONIC ACID] | < 3.70 | < 3.70 | 4.50 | < 3.70 |  | 
CN(C)CCC(O)(P(=O)(O)O)P(=O)(O)O [OLPADRONIC ACID] | < 3.70 | < 3.70 | 5.27 | < 3.70 |  | 
N=C(N)c1ccc(OCCCCCOc2ccc(C(=N)N)cc2)cc1 [PENTAMIDINE] |  |  |  |  |  | pIC50 (Trypanosoma brucei [11]): 7.46

Second part, led by results:

pIC50 (Leishmania donovani [2]) | pIC50 (Plasmodium falciparum) | pIC50 (Trypanosoma brucei [3]) | pIC50 (Trypanosoma cruzi [5]) | Structure (SMILES) | pIC50 (Toxoplasma gondii; read-out: IC50) | also measured
< 3.70 | < 3.70 | 5.77 | < 3.70 | O=P(O)(O)C(O)(CCc1cccnc1)P(=O)(O)O | < 3.70 | inhibition at 150 µM (Trypanosoma cruzi [1]): 81%; Infected (Vero [4]): 6%
 | < 3.70 | 5.07 | 4.46 | O=P(O)(O)C(O)(Cc1c[nH]cn1)P(=O)(O)O |  | IC50 (Leishmania donovani [6]): Toxic
< 3.70 | < 3.70 | 4.40 | < 3.70 | Nc1ccc(CC(O)(P(=O)(O)O)P(=O)(O)O)cc1 | 4.17 | 
 | < 3.70 | 6.66 | 3.98 | O=P(O)(O)C(O)(Cc1ccccn1)P(=O)(O)O | 5.04 | IC50 (Leishmania donovani [6]): Toxic
< 3.70 | 3.80 | 4.70 | < 3.70 | O=P(O)(O)C(O)(CSc1ccncc1)P(=O)(O)O |  | inhibition at 150 µM (Trypanosoma cruzi [1]): 0%; Infected (Vero [7]): 33%
< 3.70 | < 3.70 | < 3.70 |  | O=P(O)(O)C(O)(Cc1ccncc1)P(=O)(O)O | < 3.70 | pIC50 (Trypanosoma cruzi [9]): < 3.70
< 3.70 | 5.11 | 4.67 | < 3.70 | O=P(O)(O)C(O)(Cc1ccccc1)P(=O)(O)O |  | inhibition at 150 µM (Trypanosoma cruzi [1]): 6%; Infected (Vero [7]): 30%
 | < 3.70 | 3.75 | 4.22 | NCCC(O)(P(=O)(O)O)P(=O)(O)O [PAMIDRONIC ACID] | 4.45 | IC50 (Leishmania donovani [6]): Toxic
5.64 | 3.91 | 5.07 | 3.91 | O=P(O)(O)C(O)(Cc1cccnc1)P(=O)(O)O [RISEDRONIC ACID] | 6.31 | Infected (Vero [4]): 0%; inhibition at 150 µM (Trypanosoma cruzi [12]): 100%

— ChEMBL document CHEMBL1134372, “Bisphosphonates inhibit the growth of Trypanosoma brucei, Trypanosoma cruzi, Leishmania donovani, Toxoplasma gondii, and Plasmodium falciparum: a potential route to chemotherapy” (J Med Chem, 2001)
